# Test results: US11247965B2 (VenatoRx Pharmaceuticals, Inc., priority 2017, dated 2022)
# Columns and labels:
# [1] = In vitro cytotoxicity, MTT cell viability assay in HepG2 cells; format: cell-based; settings: human, Cytotoxicity CC50
# How it was run: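 HepG2 seeded overnight, then 7-day compound exposure (30 μM–1.0 nM, half-log steps), 37 °C. MTT 3-4 h, DMSO solubilization, A492. % of vehicle → CC50, 4-PL fit.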
# [2] = test system: HBV replication in HepAD38 cells; assay: Anti-HBV activity in HepAD38 cells, extracellular HBV DNA by QPCR; format: cell-based, HBV (genotype D, serotype ayw); settings: Hepatitis B virus, HePAD38, 168 h, read-out: Anti-HBV EC50, HepAD38 cells, extracellular HBV DNA by QPCR, 7 days of incubation
# How it was run: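 HepAD38 cells (HepG2 with tet-repressible HBV genotype D genome) seeded overnight, tetracycline removed, then treated 7 days with compounds (half-log dilutions, 30 μM–10 nM; 1:200 from DMSO). Supernatant HBV DNA quantified by QPCR against standard curve; % inhibition vs vehicle, EC50 by 4-parameter fit.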
Compound,CC50 at 7 days [1] [µM],EC50 [2] [µM]
"Cc1cc(NC(=O)c2ccc(F)c(C(F)(F)C(=O)N3CCC(NS(C)(=O)=O)C(C)(C)C3)c2)ccc1F (stereo not shown) [Example 286, 3-(2-(3,3-dimethyl-4-(methylsulfonamido)piperidin-1-yl)-1,1-difluoro-2-oxoethyl)-4-fluoro-N-(4-fluoro-3-methylphenyl)benzamide]",5 to 30,< 5
"CC(=O)NC1CCN(C(=O)C(F)(F)c2cc(C(=O)Nc3ccc(F)c(C)c3)ccc2F)CC1(C)C (stereo not shown) [Example 287, 3-(2-(4-acetamido-3,3-dimethylpiperidin-1-yl)-1,1-difluoro-2-oxoethyl)-4-fluoro-N-(4-fluoro-3-methylphenyl)benzamide]",5 to 30,< 5
"CC(=O)Nc1nc2c(s1)CN(C(=O)C(F)(F)c1cc(C(=O)Nc3ccc(F)c(C)c3)ccc1F)CC2 [Example 288, 3-(2-(2-acetamido-6,7-dihydrothiazolo[5,4-c]pyridin-5(4H)-yl)-1,1-difluoro-2-oxoethyl)-4-fluoro-N-(4-fluoro-3-methylphenyl)benzamide]",5 to 30,< 5
"Cc1cc(NC(=O)c2ccc(F)c(C(F)(F)C(=O)N3CCc4[nH]c(=O)oc4C3)c2)ccc1F [Example 289, 3-(1,1-difluoro-2-oxo-2-(2-oxo-1,4,6,7-tetrahydrooxazolo[5,4-c]pyridin-5(2H)-yl)ethyl)-4-fluoro-N-(4-fluoro-3-methylphenyl)benzamide]",5 to 30,< 5
"Cc1cc(NC(=O)c2ccc(F)c(C(F)(F)C(=O)N3[C@H](C)CN(S(=O)(=O)c4cccnc4)C[C@@H]3C)c2)ccc1F [Example 290, 3-(2-((2S,6R)-2,6-dimethyl-4-(pyridin-3-ylsulfonyl)piperazin-1-yl)-1,1-difluoro-2-oxoethyl)-4-fluoro-N-(4-fluoro-3-methylphenyl)benzamide]",5 to 30,< 5
"CNS(=O)(=O)N1C[C@@H](C)N(C(=O)C(F)(F)c2cc(C(=O)Nc3ccc(F)c(C)c3)ccc2F)[C@@H](C)C1 [Example 291, 3-(2-((2S,6R)-2,6-dimethyl-4-(N-methylsulfamoyl)piperazin-1-yl)-1,1-difluoro-2-oxoethyl)-4-fluoro-N-(4-fluoro-3-methylphenyl)benzamide]",5 to 30,< 5
"Cc1cc(NC(=O)c2ccc(F)c(C(F)(F)C(=O)N3[C@H](C)CN(S(=O)(=O)C4CC4)C[C@@H]3C)c2)ccc1F [Example 292, 3-(2-((2S,6R)-4-(cyclopropylsulfonyl)-2,6-dimethylpiperazin-1-yl)-1,1-difluoro-2-oxoethyl)-4-fluoro-N-(4-fluoro-3-methylphenyl)benzamide]",5 to 30,< 5
"Cc1cc(NC(=O)c2ccc(F)c(C(F)(F)C(=O)N3[C@H](C)CN(S(C)(=O)=O)C[C@@H]3C)c2)ccc1F [Example 293, 3-(2-((2S,6R)-2,6-dimethyl-4-(methylsulfonyl)piperazin-1-yl)-1,1-difluoro-2-oxoethyl)-4-fluoro-N-(4-fluoro-3-methylphenyl)benzamide]",5 to 30,< 5
"CC(=O)N1C[C@@H](C)N(C(=O)C(F)(F)c2cc(C(=O)Nc3ccc(F)c(C)c3)ccc2F)[C@@H](C)C1 [Example 294, 3-(2-((2S,6R)-4-acetyl-2,6-dimethylpiperazin-1-yl)-1,1-difluoro-2-oxoethyl)-4-fluoro-N-(4-fluoro-3-methylphenyl)benzamide]",5 to 30,< 5
"CC(=O)N1[C@H](C)CN(C(=O)C(F)(F)c2cc(C(=O)Nc3ccc(F)c(C)c3)ccc2F)C[C@@H]1C [Example 295, 3-(2-((3R,5S)-4-acetyl-3,5-dimethylpiperazin-1-yl)-1,1-difluoro-2-oxoethyl)-4-fluoro-N-(4-fluoro-3-methylphenyl)benzamide]",5 to 30,< 5
"Cc1cc(NC(=O)c2ccc(F)c(C(F)(F)C(=O)N3C[C@@H](C)N[C@@H](C)C3)c2)ccc1F [Example 296, 3-(2-((3R,5S)-3,5-dimethylpiperazin-1-yl)-1,1-difluoro-2-oxoethyl)-4-fluoro-N-(4-fluoro-3-methylphenyl)benzamide]",5 to 30,< 5
"Cc1cc(NC(=O)c2ccc(F)c(C(F)(F)C(=O)N3CCn4nncc4C3)c2)ccc1F [Example 297, 3-(2-(6,7-dihydro-[1,2,3]triazolo[1,5-a]pyrazin-5(4H)-yl)-1,1-difluoro-2-oxoethyl)-4-fluoro-N-(4-fluoro-3-methylphenyl)benzamide]",5 to 30,< 5
"Cc1cc(NC(=O)c2ccc([N+](=O)[O-])c(C(F)(F)C(=O)N3CCC(O)CC3)c2)ccc1F [Example 298, 3-(1,1-difluoro-2-(4-hydroxypiperidin-1-yl)-2-oxoethyl)-N-(4-fluoro-3-methylphenyl)-4-nitrobenzamide]",5 to 30,< 5
"Cc1cc(NC(=O)c2ccc(N)c(C(F)(F)C(=O)N3CCC(O)CC3)c2)ccc1F [Example 299, 4-amino-3-(1,1-difluoro-2-(4-hydroxypiperidin-1-yl)-2-oxoethyl)-N-(4-fluoro-3-methylphenyl)benzamide]",5 to 30,< 5
"Cc1cc(NC(=O)c2ccc(F)c(C(F)(F)C(=O)N3CCC(O)CC3)n2)ccc1F [Example 300, 6-(1,1-difluoro-2-(4-hydroxypiperidin-1-yl)-2-oxoethyl)-5-fluoro-N-(4-fluoro-3-methylphenyl)picolinamide]",5 to 30,< 5
"Cc1cc(NC(=O)c2ccc(F)c(C(F)(F)C(=O)N3CCC(NC(=O)CN4CCC(O)CC4)C(C)(C)C3)c2)ccc1F (stereo not shown) [Example 301, 3-(1,1-difluoro-2-(4-(2-(4-hydroxypiperidin-1-yl)acetamido)-3,3-dimethylpiperidin-1-yl)-2-oxoethyl)-4-fluoro-N-(4-fluoro-3-methylphenyl)benzamide]",5 to 30,< 5
"CNCC(=O)NC1CCN(C(=O)C(F)(F)c2nc(C(=O)Nc3ccc(F)c(C)c3)ccc2F)CC1(C)C (stereo not shown) [Example 302, 6-(2-(3,3-dimethyl-4-(2-(methylamino)acetamido)piperidin-1-yl)-1,1-difluoro-2-oxoethyl)-5-fluoro-N-(4-fluoro-3-methylphenyl)picolinamide]",5 to 30,< 5
"Cc1cc(NC(=O)c2ccc(F)c(C(F)(F)C(=O)N3CCc4nc(N)sc4C3)n2)ccc1F [Example 303, 6-(2-(2-amino-6,7-dihydrothiazolo[5,4-c]pyridin-5(4H)-yl)-1,1-difluoro-2-oxoethyl)-5-fluoro-N-(4-fluoro-3-methylphenyl)picolinamide]",5 to 30,< 5
"Cc1cc(NC(=O)c2ccc(F)c(C(F)(F)C(=O)N3CCC(N)C(C)(C)C3)n2)ccc1F (stereo not shown) [Example 304, 6-(2-(4-amino-3,3-dimethylpiperidin-1-yl)-1,1-difluoro-2-oxoethyl)-5-fluoro-N-(4-fluoro-3-methylphenyl)picolinamide]",5 to 30,< 5
"CC(=O)NC1CCN(C(=O)C(F)(F)c2nc(C(=O)Nc3ccc(F)c(C)c3)ccc2F)CC1(C)C (stereo not shown) [Example 305, 6-(2-(4-acetamido-3,3-dimethylpiperidin-1-yl)-1,1-difluoro-2-oxoethyl)-5-fluoro-N-(4-fluoro-3-methylphenyl)picolinamide]",5 to 30,< 5
